The target of test [1] is T1, human FAAH (Fatty Acid Amide Hydrolase) (Homo sapiens (Human), UniProt O00519). In words: FAAH inhibition, human FAAH CHO cell lysate (AAMCA fluorescence). The class given is biochemical. From the text:
To assist in assay development stable cell lines for human, murine and rat full length FAAH were developed. […] The full length FAAH was subcloned into the mammalian expression vector, pcDEF.neo, using XbaI and EcoRI restriction sites and used for stable cell line generation.
The full length murine FAAH was subcloned into the mammalian expression vector, pcDEFneo using either EcoRI (murine) or KpnI and EcoRI (rat) restriction sites. Chinese hamster ovary cells (CHO) were transfected following manufacturers protocol (AMAXA). Forty eight hours post transfection, cells were trypsinized and transferred to 96 well plates in Iscove's DMEM media supplemented with 2 mM Glutamine, 10% fetal calf serum, 1 mg/ml geneticin and HT Supplement (0.1 mM sodium hypoxanthine, 0.016 mM thymidine) in order to isolate single clones. […] Following removal of tissue culture media cells were dislodged following addition of Cellstripper (Mediatech, Inc. Manassas, Va.) and transferred to 96 well black clear bottom assay plate, centrifuged at 1,000 rpm for 3 mins and media removed and replaced with assay buffer (50 mM Tris pH8.0, 1 mM EDTA, 0.1% fatty acid free BSA). The reaction was initiated by addition of fluorescent substrate, AMC Arachidonoyl Amide (Cayman Chemical, Ann Arbor, Mich.) to 1 μM and reaction allowed to proceed for 2 hours at room temperature. Release of fluorescence was monitored in a CytoFluor Multiplate Reader.
CHO cells expressing FAAH were used to prepare either crude cell lysate or microsome fractions. To harvest cells, tissue culture media was decanted, the monolayer washed three times with Ca^++Mg^++ free PBS and cells recovered after 15 min in enzyme free dissociation media (Millipore Corp, Billerica, Mass.). Cells were collected by centrifuging at 2000 rpm for 15 min, and the cell pellet re-suspended with 50 mM HEPES (pH 7.4) containing 1 mM EDTA and the protease inhibitors aprotinin (1 mg/ml) and leupeptin (100 μM). The suspension was sonicated at 4° C. and the cell lysate recovered after centrifuging at 12,000×g (14,600 rpm, SS34 rotor) for 20 min at 4° C. to form a crude pellet of cell debris, nuclei, peroxisomes, lysosomes, and mitochondria; the supernatant or cell lysate was used for FAAH enzyme assay. In some eases, microsomes fractions enriched in FAAH were prepared by centrifuging the cell lysate further at 27,000 rpm (100,000×g) in SW28 rotor for 50 minutes at 4° C. The pellet containing FAAH-enriched microsomes was re-suspend in 50 mM HEPES, (pH 7.4) 1 mM EDTA, and any remaining DNA sheared by passage of material through a 23 gauge needle and aliquots of enzyme were store at −80° C. prior to use.
Assays are performed on either cell lysate or microsome fractions prepared as described or in whole cell format employing either the fluorescent substrate AAMCA (Cayman chemical, Ann Arbor, Mich.,) or ^3H-anandamide ([ETHANOLAMINE-1-3H] American Radiolabeled Chemicals; 1 mCi/ml). […] AAMCA substrate was used to achieve a final concentration of 1 μM and reaction allowed to proceed at room temperature for 1-3 hours. […] Whole cell assay is conducted with cells harvested after rinsing tissue culture flasks three times with Ca^++Mg^++ free PBS, incubating for 10 min in Enzyme free dissociation media and centrifuging for 5 minutes at 1,000 rpm in table top centrifuge. Cells are resuspended in assay buffer at desired cell number in (4×10^4 cells/assay in 96-well format; 1×10^4 cells/assay in 384-well format) and assayed as described.
Alternatively, assays are performed using anandamide [ethanolamine 1-^3H] (specific activity of 10 Ci/mmol) diluted with cold anandamide to achieve a final assay concentration of 1 μM anandamide (˜50,000 cpm). Enzyme (CHO cell lysate, brain or liver homogenate) is incubated in assay buffer (50 mM Phosphate, pH 8.0, 1 mM EDTA, 200 mM KCl, 0.2% glycerol, 0.1% fatty acid free BSA) with inhibitor at 25° C. for 30 minutes.

Test [2] deals with T1, human FAAH (Fatty Acid Amide Hydrolase). In words: FAAH inhibition, human FAAH CHO whole cell format. The class given is cell-based.

Here are results for five compounds from patent US9193697B2, “Oxazole derivatives useful as modulators of FAAH” (MERCK SHARP & DOHME CORP., priority 2010, dated 2015).

Broadly, the IC50 is the concentration needed to halve the response being measured. Read a high IC50 as weaker potency.

Molecules are shown by their SMILES. A value given as a limit tells only on which side of the number the result lay.

T1 sequence (O00519 whole entry): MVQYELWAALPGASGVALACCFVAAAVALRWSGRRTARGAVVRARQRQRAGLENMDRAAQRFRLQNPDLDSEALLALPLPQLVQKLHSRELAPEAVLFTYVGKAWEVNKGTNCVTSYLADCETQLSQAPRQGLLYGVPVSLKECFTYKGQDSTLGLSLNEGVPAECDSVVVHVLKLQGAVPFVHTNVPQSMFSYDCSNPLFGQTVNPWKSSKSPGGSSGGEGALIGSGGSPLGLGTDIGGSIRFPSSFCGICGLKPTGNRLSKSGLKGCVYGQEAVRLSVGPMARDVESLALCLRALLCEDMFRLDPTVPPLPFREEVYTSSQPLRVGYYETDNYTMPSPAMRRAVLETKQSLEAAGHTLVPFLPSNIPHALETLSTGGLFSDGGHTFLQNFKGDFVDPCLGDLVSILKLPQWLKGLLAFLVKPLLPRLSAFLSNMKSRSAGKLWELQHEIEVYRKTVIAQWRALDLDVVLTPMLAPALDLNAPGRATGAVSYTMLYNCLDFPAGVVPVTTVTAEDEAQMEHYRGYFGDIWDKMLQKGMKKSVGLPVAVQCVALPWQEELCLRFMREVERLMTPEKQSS

Turning to `CC(C)(C)OC(=O)N1CCC(c2nc(-c3ccc(S(C)(=O)=O)cc3)c(Sc3ccc(Cl)cn3)o2)CC1` [Example A7.14, tert-butyl 4-{5-[(5-chloropyridin-2-yl)sulfanyl]-4-[4-(methylsulfonyl)phenyl]-1,3-oxazol-2-yl}piperidine-1-carboxylate], the IC50 in test [1] stood at 0.0653 µM; in test [2] it was 0.443 µM.

With `C[S+]([O-])c1ccc(-c2nc(C3=CCC(O)CC3)oc2Sc2ccc(Cl)cc2)cc1` (stereo not shown) [Example C6.2, 4-{5-[(4-Chlorophenyl)sulfanyl]-4-[4-(methylsulfinyl)phenyl]-1,3-oxazol-2-yl}cyclohex-3-en-1-ol], the results for the IC50 in test [1] and in test [2] were 0.00868 µM and 0.0472 µM, respectively.

As for `COC(=O)N1CCC(c2nc(-c3ccc([S+](C)[O-])cc3)c(Sc3ccc(Cl)cn3)o2)CC1` (stereo not shown) [Example A7.17, methyl 4-{5-[(5-chloropyridin-2-yl)sulfanyl]-4-[4-(methylsulfinyl)phenyl]-1,3-oxazol-2-yl}piperidine-1-carboxylate], the IC50 was found to be 0.0751 µM in test [1] and 0.547 µM in test [2].

In the case of `CN(C)CCOC(=O)N1CCC(c2nc(-c3ccc([S+](C)[O-])cc3)c(Sc3ccc(Cl)cn3)o2)CC1` (stereo not shown) [Example A7.29, 2-(dimethylamino)ethyl 4-{5-[(5-chloropyridin-2-yl)sulfanyl]-4-[4-(methylsulfinyl)phenyl]-1,3-oxazol-2-yl}piperidine-1-carboxylate], the figures for the 50% inhibitory concentration (IC50) in test [1] and in test [2] were 1.91 µM and no less than 10 µM, respectively.

Take `CC(C)OC(=O)N1CCC(c2nc(-c3ccc([S+](C)[O-])cc3)c(Sc3ccc(Cl)cn3)o2)CC1` (stereo not shown) [Example A7.22, propan-2-yl 4-{5-[(5-chloropyridin-2-yl)sulfanyl]-4-[4-(methylsulfinyl)phenyl]-1,3-oxazol-2-yl}piperidine-1-carboxylate]: the IC50 was 0.0458 µM in test [1] and 0.383 µM in test [2].
